According to patent US20110275673A1, “INHIBITORS OF SPHINGOSINE KINASE 1” (priority 2008, published 2011):

What follows are compounds tested against T1, SPHK-1 (Homo sapiens, UniProt Q9NYA1) (assay: Reporter Assay: sphingosine kinase conversion of fluorescein-labeled sphingosine, read on Lab Chip 3000). Conditions: 2 μM Fl-sphingosine, 25 μM ATP, 300 ng/ml SK1, 1 hour at room temperature; from percent conversion of substrate to product; read-out: SPHK-1 IC50 (n =).
T1 construct: purchased BPS Bioscience
Assay type: biochemical
Experimental: Sphingosine kinase is a 49 kDa enzyme that catalyzes the formation of sphingosine-1-phosphate (S-1-P) from sphingosine.
Fluorescein labeled sphingosine was obtained from Echelon Biosciences (S-100F). Buffer reagents (1 M Hepes, 10 triton x-100, 100% glycerol, dithiothreitol 1 M MgCl2, ATP, 500 mM EDTA and DMSO) were purchased from Sigma. Coating reagent (CR-3), was obtained from Caliper Life Sciences.
0.05% Triton X-100, 2.5% glycerol, 0.1% CR-3, and 0,6% DMSO. Termination butler included 100 mM Hepes (pH 7.5), 40 mM EDTA, 0.05% Triton X-100, 2.5% glycerol, 0.3% CR-3, and 0.6% DMSO.
All assay components were made in reaction buffer. […] The assaylvas allowed to incubate at room temperature sealed and protected from light for 1 hour.
After 1 hour, 10 μl of termination buffer was added to terminate, the reaction, and the plate was read on a Lab Chip 3000. The plate was read for one cycle. The Lab Chip separated substrate and product based on charge.
Results were calculated based on percent conversion of substrate to product using the following formula: […]
Percent inhibition and IC50's for compounds of the invention were determined using the percent conversion values obtained horn the Lab Chip.

T1 sequence (Q9NYA1 whole entry): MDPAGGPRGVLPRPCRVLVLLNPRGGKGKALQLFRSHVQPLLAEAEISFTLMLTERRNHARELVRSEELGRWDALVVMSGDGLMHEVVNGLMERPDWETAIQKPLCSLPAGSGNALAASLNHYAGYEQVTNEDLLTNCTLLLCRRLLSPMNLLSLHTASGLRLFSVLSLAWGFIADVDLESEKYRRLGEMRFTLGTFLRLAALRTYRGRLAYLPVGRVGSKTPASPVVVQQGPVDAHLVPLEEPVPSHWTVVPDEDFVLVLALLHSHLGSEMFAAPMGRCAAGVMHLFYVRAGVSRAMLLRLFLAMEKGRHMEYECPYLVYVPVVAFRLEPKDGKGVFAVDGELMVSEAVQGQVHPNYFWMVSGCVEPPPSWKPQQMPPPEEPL

`O=C(NCc1ccc(CCCCCOc2ccc(F)cc2)cc1)[C@H]1NCC[C@@H]1O` [Example 28, (2S,3S)-N-(4-(5-(4-Fluorophenoxy)pentyl)benzyl)-3-hydroxy-pyrrolidine-2-carboxamide] was tested. Which IC50 did it give?
Its IC50 is 4.7 µM.

How did the IC50 turn out when `CCCCCCCc1noc(-c2ccc(CNC(=O)[C@@H]3C[C@@H](O)CCN3)cc2)n1` [Example 102, (2S,4S)—N-(4-(3-heptyl-1,2,4-oxadiazol-5-yl)benzyl)-4-hydroxypiperidine-2-carboxamide] was run?
The IC50 was 2.7 µM.

Which IC50 does the source give for `CCCCCCCCc1cc2ccc(CNC(=O)[C@H]3NCC[C@@H]3O)cc2o1` [Example 112, (2S,3S)-3-Hydroxy-N-((2-octylbenzofuran-6-yl)methyl)pyrrolidine-2-carboxamide] here?
Its IC50 is 0.49 µM.

For `CCCCc1ccc(-c2nc(-c3ccc(CNC(=O)[C@H]4NCC[C@@H]4O)cc3)no2)cc1` [Example 82, (2S,3S)—N-(4-(5-(4-Butylphenyl)-1,2,4-oxadiazol-3-yl)benzyl)-3-hydroxypyrrolidine-2-carboxamide], which IC50 is on record?
The IC50 was 3.7 µM.

`CCCCCCCCc1ccc(NC(=O)[C@H]([C@H](C)O)N(CCC)CCC)cc1` [Example 47, (2S,3S)-2-(dipropyl-amino)-3-hydroxy-N-(4-octylphenyl) butanamide] was tested. Which IC50 did it give?
The IC50 was > 1 µM.

`O=C(NCc1ccc(-n2cc(CCC3CCCCC3)nn2)cc1)[C@H]1NCC[C@@H]1O` [Example 67, (2S,3S)-(4-(4-(2-Cyclohexylethyl)-1H-1,2,3-triazol-1-yl)benzyl)-3-hydroxypyrrolidine-2-carboxamide] was tested. Which IC50 did it give?
The IC50 was 0.29 µM.

For `Cn1nc(-c2ccc(CNC(=O)[C@H]3NCC[C@@H]3O)cc2)nc1C1CCCCC1` [Example 63, (2S,3S)—N-(4-(5-Cyclohexyl-1-methyl-1H-1,2,4-triazol-3-yl)benzyl)-3-hydroxypyrrolidine-2-carboxamide], which IC50 is on record?
Its IC50 is 2.1 µM.

With `CCCCCCCc1nc(-c2ccc3c(c2)CC[C@H]3NC(=O)[C@H]2NCC[C@@H]2O)no1` [Example 61] as the compound, how does the IC50 read?
Its IC50 is 6.9 µM.

Which IC50 does the source give for `CCCCCCCCc1ccc(NC[C@@H](N)CO)cc1` [Example 10, (R)-2-Amino-3-(4-octylphenyl-amino) propan-1-ol] here?
The IC50 was 5 µM.

With `O=C(Nc1ccc(CCCCCOc2ccc(F)cc2)cc1)[C@H]1NCC[C@@H]1O` [Example 24, (2S,3S)-N-(4-(5-(4-Fluorophenoxy)pentyl)phenyl)-3-hydroxy-pyrrolidine-2-carboxamide] as the compound, how does the IC50 read?
The IC50 was 0.19 µM.

Which IC50 does the source give for `CCCCCCCCc1ccc([C@H](C)NC(=O)[C@H]2NCC[C@@H]2O)cc1` [Example 27, (2S,3S)-3-Hydroxy-N-((S)-1-(4-octylphenyl)ethyl) pyrrolidine-2-carboxamide] here?
Its IC50 is 0.19 µM.

How did the IC50 turn out when `O=C(Nc1ccc(CCCC2CCCCC2)cc1)[C@H]1NCC[C@@H]1O` [Example 50, (2S,3S)-N-(4-(3-cyclohexyl-propyl)phenyl)-3-hydroxy-pyrrolidine-2-carboxamide] was run?
The IC50 was 0.95 µM.

With `CCCCCCCCc1cc2cc(CNC(=O)[C@H]3NCC[C@@H]3O)ccc2[nH]1` [Example 108, (2S,3S)-3-Hydroxy-N-((2-octyl-1H-indol-5-yl)methyl)pyrrolidine-2-carboxamide] as the compound, how does the IC50 read?
The IC50 was 9.4 µM.

Which IC50 does the source give for `CCCCCCCc1nc(-c2ccc3c(c2)CC[C@@H]3NC(=O)[C@H]2NCC[C@@H]2O)no1` [Example 62, (2S,3S)—N—((S)-5-(5-heptyl-1,2,3-oxadiazol-3-yl)-2,3-dihydro-1H-inden-1-yl)-3-hydroxypyrrolidine-2-carboxamide] here?
Its IC50 is 0.06 µM.

`CCCCCCCCc1ccc(NC(=O)[C@@H](N)[C@H](C)O)cc1` [Example 32, (2S,3S)-2-Amino-3-hydroxy-N-(4-octylphenyl) butanamide] was tested. Which IC50 did it give?
Its IC50 is 1.1 µM.

For `CCCCCCCCc1ccc(CNC(=O)[C@H]2NCC[C@@H]2O)cc1` [Example 36, (2S,3S)-3-hydroxy-N-(4-octylbenzyl) pyrrolidine-2-carboxamide], which IC50 is on record?
The IC50 was 2.1 µM.

With `CCCCCCCCc1cc2c(F)c(CNC(=O)[C@H]3NCC[C@@H]3O)ccc2o1` [Example 121, (2S,3S)—N-((4-Fluoro-2-octylbenzofuran-5-yl)methyl)-3-hydroxypyrrolidine-2-carboxamide] as the compound, how does the IC50 read?
Its IC50 is 0.51 µM.
